# Values of other authors as cited in patent US20070072232A1, “Identification of genetic components of drug response” (Variagenics, Inc. a Delaware corporation, priority 2000, published 2007).
# Structures can show the parent of a compound that is named as a salt.
# Test system: Alzheimer's disease
# Conditions: per PDR
smiles,measurement,setting,value
"Nc1c2c(nc3ccccc13)CCCC2 [Cognex, tacrine hydrochloride]",patients showing no change or minimal worsening of their disease,patients receiving Cognex for Alzheimer's disease,about 45%
same,Alzheimer's patients minimally improved,patients receiving Cognex,About 58%
same,patients much improved,patients receiving Cognex,about 2%
